Assay results taken from publication PMC5218480 (PLoS ONE, 2017).

System: MV-4-11 cells
Experiment: Gene expression microarray analysis (Affymetrix PrimeView) and GSEA
Assay type: cell-based, human
Design: RFU PODN (11730768_x_at) / Fold change /veh PODN (11730768_x_at) / RFU LINC00158 (11744669_a_at) / Fold change /veh LINC00158 (11744669_a_at) / RFU DUSP10 (11751237_a_at) / Fold change /veh DUSP10 (11751237_a_at) / RFU ID3 (11757404_x_at) / Fold change /veh ID3 (11757404_x_at) / RFU PLEKHG5 (11737974_s_at) / Fold change /veh PLEKHG5 (11737974_s_at) / RFU LRRC4B (11730491_at) / Fold change /veh LRRC4B (11730491_at) / RFU GIMAP4 (11747438_a_at) / Fold change /veh GIMAP4 (11747438_a_at) / RFU KRT8 (11758183_x_at) / Fold change /veh KRT8 (11758183_x_at) / RFU CNN1 (11734310_a_at) / Fold change /veh CNN1 (11734310_a_at) / RFU VPS37D (11726825_at) / Fold change /veh VPS37D (11726825_at) / RFU C10orf10 (11716522_x_at) / Fold change /veh C10orf10 (11716522_x_at) / RFU KIR2DL2 /// KIR2DL4 /// KIR2DL5A /// KIR2DL5B /// KIR2DS1 /// KIR2DS2 /// KIR2DS3 /// KIR2DS4 /// KIR3DL3 /// KIR3DL3 /// KIR3DS1 (11738374_at) / Fold change /veh KIR2DL2 /// KIR2DL4 /// KIR2DL5A /// KIR2DL5B /// KIR2DS1 /// KIR2DS2 /// KIR2DS3 /// KIR2DS4 /// KIR3DL3 /// KIR3DL3 /// KIR3DS1 (11738374_at) / RFU C1QL1 (11718748_at) / Fold change /veh C1QL1 (11718748_at) / RFU TMPRSS4 (11747572_a_at) / Fold change /veh TMPRSS4 (11747572_a_at) / RFU HAMP (11756126_x_at) / Fold change /veh HAMP (11756126_x_at) / RFU RNFT2 (11725882_a_at) / Fold change /veh RNFT2 (11725882_a_at) / RFU NR4A2 (11747474_a_at) / Fold change /veh NR4A2 (11747474_a_at) / RFU ABCC12 (11746883_a_at) / Fold change /veh ABCC12 (11746883_a_at) / RFU TMEM136 (11760407_x_at) / Fold change /veh TMEM136 (11760407_x_at) / RFU CLDN22 /// WWC2 (11732394_at) / Fold change /veh CLDN22 /// WWC2 (11732394_at) / RFU HLA-DPB1 (11760878_x_at) / Fold change /veh HLA-DPB1 (11760878_x_at) / RFU SPINT1 (11716480_a_at) / Fold change /veh SPINT1 (11716480_a_at) / RFU GAP43 (11754022_s_at) / Fold change /veh GAP43 (11754022_s_at) / RFU A4GNT (11735810_at) / Fold change /veh A4GNT (11735810_at) / RFU PRB3 (11715151_x_at) / Fold change /veh PRB3 (11715151_x_at) / RFU TUBB4B (11761932_at) / Fold change /veh TUBB4B (11761932_at) / RFU CAPN14 (11732068_a_at) / Fold change /veh CAPN14 (11732068_a_at) / RFU TMCC2 (11721928_a_at) / Fold change /veh TMCC2 (11721928_a_at) / RFU IRGQ (11745062_a_at) / Fold change /veh IRGQ (11745062_a_at) / RFU FAM174B (11720279_a_at) / Fold change /veh FAM174B (11720279_a_at) / RFU TMPRSS4 (11748680_a_at) / Fold change /veh TMPRSS4 (11748680_a_at) / RFU FAM212B (11763350_a_at) / Fold change /veh FAM212B (11763350_a_at) / RFU PLEKHG5 (11743358_a_at) / Fold change /veh PLEKHG5 (11743358_a_at) / RFU ZSCAN30 (11745921_a_at) / Fold change /veh ZSCAN30 (11745921_a_at) / RFU CMKLR1 (11741424_a_at) / Fold change /veh CMKLR1 (11741424_a_at) / RFU LOC101060620 /// MAPK8IP1 (11723275_at) / Fold change /veh LOC101060620 /// MAPK8IP1 (11723275_at) / RFU SPTSSB (11747773_x_at) / Fold change /veh SPTSSB (11747773_x_at) / RFU PRSS12 (11739890_at) / Fold change /veh PRSS12 (11739890_at) / RFU BIN1 (11741810_x_at) / Fold change /veh BIN1 (11741810_x_at) / RFU WNT11 (11732464_a_at) / Fold change /veh WNT11 (11732464_a_at) / RFU C10orf10 (11716521_a_at) / Fold change /veh C10orf10 (11716521_a_at) / RFU C5orf56 (11738089_at) / Fold change /veh C5orf56 (11738089_at) / RFU CYB561 (11721691_x_at) / Fold change /veh CYB561 (11721691_x_at) / RFU ANKRD19P (11752326_a_at) / Fold change /veh ANKRD19P (11752326_a_at) / RFU OR2T12 /// OR2T33 /// OR2T8 (11738714_s_at) / Fold change /veh OR2T12 /// OR2T33 /// OR2T8 (11738714_s_at) / RFU VCAN (11748164_a_at) / Fold change /veh VCAN (11748164_a_at) / RFU JSRP1 (11732532_at) / Fold change /veh JSRP1 (11732532_at) / RFU KRTAP10-11 (11738290_x_at) / Fold change /veh KRTAP10-11 (11738290_x_at) / RFU MYO3A (11730013_a_at) / Fold change /veh MYO3A (11730013_a_at) / RFU EBF3 (11725865_a_at) / Fold change /veh EBF3 (11725865_a_at) / RFU CAMK2N1 (11719241_x_at) / Fold change /veh CAMK2N1 (11719241_x_at) / RFU C5orf56 (11738088_a_at) / Fold change /veh C5orf56 (11738088_a_at) / RFU OLFML3 (11715873_a_at) / Fold change /veh OLFML3 (11715873_a_at) / RFU LOC100653217 /// NTM (11731650_a_at) / Fold change /veh LOC100653217 /// NTM (11731650_a_at) / RFU MAPK11 (11762145_a_at) / Fold change /veh MAPK11 (11762145_a_at) / RFU FIZ1 (11724087_x_at) / Fold change /veh FIZ1 (11724087_x_at) / RFU OASL (11726364_x_at) / Fold change /veh OASL (11726364_x_at) / RFU SOX15 (11748057_x_at) / Fold change /veh SOX15 (11748057_x_at) / RFU CD79A (11719716_a_at) / Fold change /veh CD79A (11719716_a_at) / RFU HIST1H1D (11736915_at) / Fold change /veh HIST1H1D (11736915_at) / RFU CASKIN2 (11723855_a_at) / Fold change /veh CASKIN2 (11723855_a_at) / RFU LOC730098 (11760151_x_at) / Fold change /veh LOC730098 (11760151_x_at) / RFU OR4N2 (11742367_at) / Fold change /veh OR4N2 (11742367_at) / RFU PRRT2 (11749266_a_at) / Fold change /veh PRRT2 (11749266_a_at) / RFU SNX32 (11753110_a_at) / Fold change /veh SNX32 (11753110_a_at) / RFU CDHR5 (11726645_a_at) / Fold change /veh CDHR5 (11726645_a_at) / RFU RCAN1 (11760418_a_at) / Fold change /veh RCAN1 (11760418_a_at) / RFU FAM167A (11723789_a_at) / Fold change /veh FAM167A (11723789_a_at) / RFU FAM26E (11764081_at) / Fold change /veh FAM26E (11764081_at) / RFU ISYNA1 (11749810_s_at) / Fold change /veh ISYNA1 (11749810_s_at) / RFU ACY1 (11761880_at) / Fold change /veh ACY1 (11761880_at) / RFU 11764098_at / Fold change /veh 11764098_at / RFU SAMD14 (11745864_x_at) / Fold change /veh SAMD14 (11745864_x_at) / RFU NPB (11741838_a_at) / Fold change /veh NPB (11741838_a_at) / RFU TMPRSS6 (11731388_a_at) / Fold change /veh TMPRSS6 (11731388_a_at) / RFU KRTAP10-2 (11738614_at) / Fold change /veh KRTAP10-2 (11738614_at) / RFU ARHGAP8 /// PRR5-ARHGAP8 (11727945_x_at) / Fold change /veh ARHGAP8 /// PRR5-ARHGAP8 (11727945_x_at) / RFU KRTAP5-7 /// NADSYN1 (11734609_at) / Fold change /veh KRTAP5-7 /// NADSYN1 (11734609_at) / RFU RASL12 (11751679_a_at) / Fold change /veh RASL12 (11751679_a_at) / RFU CDKN2B (11736163_a_at) / Fold change /veh CDKN2B (11736163_a_at) / RFU PRF1 (11729649_at) / Fold change /veh PRF1 (11729649_at) / RFU, ZNF638 /// ZNF638-IT1 / Fold change vs veh, ZNF638 /// ZNF638-IT1 / RFU, PANK3 / Fold change vs veh, PANK3 / RFU, SH3YL1 / Fold change vs veh, SH3YL1 / RFU, ZEB2 / Fold change vs veh, ZEB2 / RFU, NRIP1 / Fold change vs veh, NRIP1 / RFU, PTTG1IP / Fold change vs veh, PTTG1IP / RFU, CAPN2 / Fold change vs veh, CAPN2 / RFU, MED14 / Fold change vs veh, MED14 / RFU, SNORA58 / Fold change vs veh, SNORA58 / RFU, C1orf63 / Fold change vs veh, C1orf63 / RFU, LRRFIP1 / Fold change vs veh, LRRFIP1 / RFU, NDUFAF7 / Fold change vs veh, NDUFAF7 / RFU, SLC12A2 / Fold change vs veh, SLC12A2 / RFU, IBTK / Fold change vs veh, IBTK / RFU, ESF1 / Fold change vs veh, ESF1 / Fold change vs veh, TMEM50B / RFU, TAOK1 / Fold change vs veh, TAOK1 / RFU, ACBD3 / Fold change vs veh, ACBD3 / RFU, TMA16 / Fold change vs veh, TMA16 / RFU, RWDD3 / Fold change vs veh, RWDD3 / RFU, BCAT1 / Fold change vs veh, BCAT1 / RFU, EDEM3 / Fold change vs veh, EDEM3 / RFU, TMEM33 / Fold change vs veh, TMEM33 / RFU, WDR75 / Fold change vs veh, WDR75 / RFU, AHCTF1 / Fold change vs veh, AHCTF1 / RFU, TFRC / Fold change vs veh, TFRC / RFU, ZDHHC17 / Fold change vs veh, ZDHHC17 / RFU, NOM1 / Fold change vs veh, NOM1 / RFU, ARL8B / Fold change vs veh, ARL8B / RFU, ZBTB11 / Fold change vs veh, ZBTB11 / RFU, TAMM41 / Fold change vs veh, TAMM41 / RFU, KIAA1704 /// LOC100996395 / Fold change vs veh, KIAA1704 /// LOC100996395 / RFU, ING1 / Fold change vs veh, ING1 / RFU, TRMT61B / Fold change vs veh, TRMT61B / RFU, FUBP3 / Fold change vs veh, FUBP3 / RFU, TP53 / Fold change vs veh, TP53 / RFU, TNKS2 / Fold change vs veh, TNKS2 / RFU, ZFP14 / Fold change vs veh, ZFP14 / RFU, ACTR2 / Fold change vs veh, ACTR2 / RFU, PPP3R1 / Fold change vs veh, PPP3R1 / RFU, PIK3R1 / Fold change vs veh, PIK3R1 / RFU, HNRNPA1 / Fold change vs veh, HNRNPA1 / RFU, RNF170 / Fold change vs veh, RNF170 / RFU, ZNF28 / Fold change vs veh, ZNF28 / RFU, RNGTT / Fold change vs veh, RNGTT / RFU, OGT / Fold change vs veh, OGT / RFU, BRD1 / Fold change vs veh, BRD1 / RFU, MARS / Fold change vs veh, MARS / RFU, ZNF655 / Fold change vs veh, ZNF655 / RFU, FAHD1 / Fold change vs veh, FAHD1 / RFU, BDP1 / Fold change vs veh, BDP1 / RFU, LRRCC1 / Fold change vs veh, LRRCC1 / RFU, ARID1A / Fold change vs veh, ARID1A / RFU, ZNF146 / Fold change vs veh, ZNF146 / RFU, ZNF330 / Fold change vs veh, ZNF330 / RFU, GPN3 / Fold change vs veh, GPN3 / RFU, C9orf123 / Fold change vs veh, C9orf123 / RFU, N4BP2L2 / Fold change vs veh, N4BP2L2 / RFU, ARFIP1 / Fold change vs veh, ARFIP1 / RFU, FAM179B / Fold change vs veh, FAM179B / RFU, BCL10 / Fold change vs veh, BCL10 / RFU, UHRF1BP1L / Fold change vs veh, UHRF1BP1L / RFU, BET1 / Fold change vs veh, BET1 / RFU, CNOT2 / Fold change vs veh, CNOT2 / RFU, ZNF268 / Fold change vs veh, ZNF268 / Fold change vs veh, ZNF507 / RFU, DGCR2 / Fold change vs veh, DGCR2 / RFU, WDSUB1 / Fold change vs veh, WDSUB1 / Fold change vs veh, HSP90B1 /// MIR3652 / RFU, ADSS / Fold change vs veh, ADSS / RFU, GK / Fold change vs veh, GK / RFU, ZNF148 / Fold change vs veh, ZNF148 / RFU, TAF9 / Fold change vs veh, TAF9 / RFU, SLC1A5 / Fold change vs veh, SLC1A5 / RFU, SLMO2 / Fold change vs veh, SLMO2 / RFU, ABCC4 / Fold change vs veh, ABCC4 / RFU, LOC101060439 /// RAP1B / Fold change vs veh, LOC101060439 /// RAP1B / RFU, RFX7 / Fold change vs veh, RFX7 / RFU, GTPBP10 / Fold change vs veh, GTPBP10 / RFU, CNEP1R1 / Fold change vs veh, CNEP1R1 / RFU, BIVM-ERCC5 /// ERCC5 / Fold change vs veh, BIVM-ERCC5 /// ERCC5 / RFU, ILF3 / Fold change vs veh, ILF3 / RFU 11762660_at / Fold change /veh 11762660_at / RFU VCAN (11757783_s_at) / Fold change /veh VCAN (11757783_s_at) / RFU DDX43 (11728927_at) / Fold change /veh DDX43 (11728927_at) / RFU KRT8 (11758188_x_at) / Fold change /veh KRT8 (11758188_x_at) / RFU NKD1 (11759106_at) / Fold change /veh NKD1 (11759106_at) / RFU SRD5A1 (11742802_a_at) / Fold change /veh SRD5A1 (11742802_a_at) / RFU TPSAB1 /// TPSB2 (11721975_s_at) / Fold change /veh TPSAB1 /// TPSB2 (11721975_s_at) / RFU GSTM3 (11746129_a_at) / Fold change /veh GSTM3 (11746129_a_at) / RFU IL23R (11737362_x_at) / Fold change /veh IL23R (11737362_x_at) / RFU TMEM51 (11727254_a_at) / Fold change /veh TMEM51 (11727254_a_at) / RFU PIWIL2 (11732686_x_at) / Fold change /veh PIWIL2 (11732686_x_at) / RFU ORM1 (11744905_x_at) / Fold change /veh ORM1 (11744905_x_at) / RFU CCDC152 (11743942_at) / Fold change /veh CCDC152 (11743942_at) / RFU ECM1 (11717891_a_at) / Fold change /veh ECM1 (11717891_a_at) / RFU IL23R (11748794_a_at) / Fold change /veh IL23R (11748794_a_at) / RFU TNFAIP8L3 (11732012_x_at) / Fold change /veh TNFAIP8L3 (11732012_x_at) / RFU MBOAT4 (11741988_at) / Fold change /veh MBOAT4 (11741988_at) / RFU 11764193_at / Fold change /veh 11764193_at / RFU TMEM53 (11763286_at) / Fold change /veh TMEM53 (11763286_at) / RFU MAGEB2 (11727129_at) / Fold change /veh MAGEB2 (11727129_at) / RFU TMEM200A (11744735_a_at) / Fold change /veh TMEM200A (11744735_a_at) / RFU CCDC152 (11751479_a_at) / Fold change /veh CCDC152 (11751479_a_at) / RFU FAM211A (11726209_a_at) / Fold change /veh FAM211A (11726209_a_at) / RFU RGS16 (11746705_a_at) / Fold change /veh RGS16 (11746705_a_at) / RFU VCAN (11755009_s_at) / Fold change /veh VCAN (11755009_s_at) / RFU RHOB (11743442_s_at) / Fold change /veh RHOB (11743442_s_at) / RFU RGS16 (11720943_a_at) / Fold change /veh RGS16 (11720943_a_at) / RFU RGS16 (11720944_at) / Fold change /veh RGS16 (11720944_at) / RFU, VPS4B / Fold change vs veh, VPS4B / RFU, CREB1 / Fold change vs veh, CREB1 / RFU, DNAJC13 / Fold change vs veh, DNAJC13 / RFU, GNAQ / Fold change vs veh, GNAQ / RFU, CDK5R1 / Fold change vs veh, CDK5R1 / RFU, ZRANB3 / Fold change vs veh, ZRANB3 / RFU, CUL4A / Fold change vs veh, CUL4A / RFU, CCNY / Fold change vs veh, CCNY / RFU, UFL1 / Fold change vs veh, UFL1 / RFU, COG3 / Fold change vs veh, COG3 / RFU, DIAPH2 / Fold change vs veh, DIAPH2 / RFU, SKA2 / Fold change vs veh, SKA2 / RFU, AFF3 / Fold change vs veh, AFF3 / RFU, LMF1 / Fold change vs veh, LMF1 / RFU, IPO11 / Fold change vs veh, IPO11 / RFU, DFFB / Fold change vs veh, DFFB / RFU, FOXP1 / Fold change vs veh, FOXP1 / RFU, CARD8 / Fold change vs veh, CARD8 / RFU, STRN3 / Fold change vs veh, STRN3 / RFU, ADK / Fold change vs veh, ADK / RFU, RASSF2 / Fold change vs veh, RASSF2 / RFU, WIPF1 / Fold change vs veh, WIPF1 / RFU, LARP1B / Fold change vs veh, LARP1B / RFU, RASA1 / Fold change vs veh, RASA1 / RFU, RB1 / Fold change vs veh, RB1 / RFU, PPFIA1 / Fold change vs veh, PPFIA1 / RFU, MAT2A / Fold change vs veh, MAT2A / RFU, CCT5 / Fold change vs veh, CCT5 / RFU, WDR92 / Fold change vs veh, WDR92 / RFU, CUX1 / Fold change vs veh, CUX1 / RFU, TTC7A / Fold change vs veh, TTC7A / RFU, TMEM135 / Fold change vs veh, TMEM135 / RFU, DEPTOR / Fold change vs veh, DEPTOR / RFU, CPM / Fold change vs veh, CPM / RFU, DNAJB6 / Fold change vs veh, DNAJB6 / RFU, CACNA2D3 / Fold change vs veh, CACNA2D3 / RFU, DTX4 / Fold change vs veh, DTX4 / RFU, TFCP2 / Fold change vs veh, TFCP2 / RFU, GMCL1 /// GMCL1P1 / Fold change vs veh, GMCL1 /// GMCL1P1 / RFU, AEBP2 / Fold change vs veh, AEBP2 / RFU, SNHG1 /// SNORD22 /// SNORD25 /// SNORD26 /// SNORD27 /// SNORD28 /// SNORD29 /// SNORD31 / Fold change vs veh, SNHG1 /// SNORD22 /// SNORD25 /// SNORD26 /// SNORD27 /// SNORD28 /// SNORD29 /// SNORD31 / Fold change (Aza/veh), C12orf56 (ProbeSet 11735607_a_at) / Fold change (ACY-1035/veh), C12orf56 (ProbeSet 11735607_a_at) / Fold change (Aza/veh), FGFR1OP (ProbeSet 11751329_s_at) / Fold change (ACY-1035/veh), FGFR1OP (ProbeSet 11751329_s_at) / Fold change (Aza/veh), VPS36 (ProbeSet 11739960_a_at) / Fold change (ACY-1035/veh), VPS36 (ProbeSet 11739960_a_at) / RFU SYPL1 (11715823_x_at) / Fold change /veh SYPL1 (11715823_x_at) / RFU IGFBP7 (11715501_s_at) / Fold change /veh IGFBP7 (11715501_s_at) / RFU REEP3 (11722064_at) / Fold change /veh REEP3 (11722064_at) / RFU IGLL1 (11728026_x_at) / Fold change /veh IGLL1 (11728026_x_at): dose or concentration left out as unconfirmed
Conditions: ProbeSet 11725901_x_at; LIST B

SMILES: Nc1ccc(-c2cccs2)cc1NC(=O)c1ccc2c(c1)cc(C1CC1)n2CCN1CCOCC1 [ACY-1035]
- Fold change vs veh, RWDD3: 0.90
